Common to all, as to type: biochemical
The target of one assay is T1, JAK3 (Homo sapiens, UniProt P52333).
T1 construct: purchased Invitrogen Corporation, Carlsbad, Calif; PV4080
T1 sequence (P52333 1-1124): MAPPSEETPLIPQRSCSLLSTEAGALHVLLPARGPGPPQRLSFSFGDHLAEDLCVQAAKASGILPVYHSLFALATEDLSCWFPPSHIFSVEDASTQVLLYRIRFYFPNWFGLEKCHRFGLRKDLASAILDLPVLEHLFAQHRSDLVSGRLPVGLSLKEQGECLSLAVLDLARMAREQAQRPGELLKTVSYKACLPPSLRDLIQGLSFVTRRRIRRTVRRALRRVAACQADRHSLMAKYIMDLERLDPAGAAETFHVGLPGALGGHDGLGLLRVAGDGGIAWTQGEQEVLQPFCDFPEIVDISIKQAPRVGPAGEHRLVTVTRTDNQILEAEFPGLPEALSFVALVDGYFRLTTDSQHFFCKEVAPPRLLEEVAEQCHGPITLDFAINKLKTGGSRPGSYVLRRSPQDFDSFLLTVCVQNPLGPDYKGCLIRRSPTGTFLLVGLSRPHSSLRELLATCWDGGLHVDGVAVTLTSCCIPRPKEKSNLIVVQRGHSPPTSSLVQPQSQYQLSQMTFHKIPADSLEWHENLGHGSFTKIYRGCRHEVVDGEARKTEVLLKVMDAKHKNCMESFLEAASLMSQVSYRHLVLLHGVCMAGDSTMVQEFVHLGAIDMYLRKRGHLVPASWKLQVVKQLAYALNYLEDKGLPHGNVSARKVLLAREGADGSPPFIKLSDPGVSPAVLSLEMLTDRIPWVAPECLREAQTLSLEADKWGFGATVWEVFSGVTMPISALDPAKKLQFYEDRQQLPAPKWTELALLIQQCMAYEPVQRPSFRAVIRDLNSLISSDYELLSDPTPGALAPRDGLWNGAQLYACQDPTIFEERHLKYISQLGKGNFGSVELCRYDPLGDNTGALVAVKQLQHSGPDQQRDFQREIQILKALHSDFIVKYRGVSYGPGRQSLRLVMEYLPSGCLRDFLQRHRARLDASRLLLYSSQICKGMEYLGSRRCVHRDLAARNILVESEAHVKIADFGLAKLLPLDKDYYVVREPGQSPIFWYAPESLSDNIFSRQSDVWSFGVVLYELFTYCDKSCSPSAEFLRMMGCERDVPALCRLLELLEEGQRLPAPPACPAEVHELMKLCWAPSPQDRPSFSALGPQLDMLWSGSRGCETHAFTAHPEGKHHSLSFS
The experiment in a line: JAK3 Inhibition Assay (Omnia kinase fluorescence peptide substrate assay). The conditions noted are these: averaged IC50 ranges; assay of Example D; 10 μM (Km app) or 1 mM ATP, 2.5 nM JAK3. The source says:
(§1) The assays described in Examples A, B, C and D for the determination of Tyk2, JAK1, JAK2 and JAK3 kinase activity, respectively, utilized the Omnia® Kinase fluorescence peptide substrate-based technology (Invitrogen). The specific components of the assay mixture are described in Examples A, B, C and D. In these assays, Mg^2+ is chelated upon phosphorylation of the Omnia peptide by the kinase to form a bridge between the chelation-enhanced fluorophore Sox and the phosphate, resulting in an increase in fluorescence emission at 485 nm when excited at […]. The reactions were therefore read at excitation 360 nm and emission was measured at 485 nm every 50 seconds for 45 minutes using a PerkinElmer EnVision Multilabel Plate Reader.
(§2) The final buffer conditions for Tyk2, JAK1, JAK2, and JAK3 assays were as follows: 25 mM HEPES, pH 7.4, 10 mM MgCl2, 0.01% Triton X-100 and 1 mM DTT.
(§3) Compounds were prepared at 50× the final concentration in DMSO by conducting 3-fold serial dilutions from a 500-μM intermediate dilution to give a 10-point dosing curve having a high dose of 10 μM. Two-μL aliquots of these were transferred to a fresh plate for a ten-fold intermediate dilution with assay buffer. Five-μL aliquots of the diluted compounds were then transferred to 20-μL of assay mixtures described in Examples A, B, C and D for a final concentration of DMSO of 2%. A standard or reference compound was typically included on each assay plate to validate that plate. For each plate, percent of control (POC) values were calculated for each well according to the following equation:
(§4) where Xmax=Average Uninhibited Controls • Xmin=Average Background IC50's were estimated from the POC's using a standard 4-parameter logistic model:
(§5) where • A=Minimum Y (Bottom Asymptote) • B=Maximum Y (Top Asymptote) • C=EC50 • D=Slope Factor • X=Compound Concentration (nM) • Y=POC
(§6) The IC50 is defined as the concentration of inhibitor at which the POC equals 50 for the fitted curve.
Compounds of Formula I were screened for their ability to inhibit JAK3 using the general enzyme inhibition assay method, in which the assay mixture contained 10 μM (Km app) or 1 mM ATP, 10 μM Omnia® Y7 peptide (Catalog #IVGN KNZ3071C, Invitrogen Corporation, Carlsbad, Calif.) and 2.5 nM JAK3 in a total volume of 20 μL. JAK3 was purchased from Invitrogen Corporation, Carlsbad, Calif. (catalog #IVGN PV4080).

For a further assay, the target named is T2, Human Tyk2 kinase domain (Homo sapiens, UniProt P29597).
T2 construct: comprising amino acids 886 to 1187 with 10 additional histidine residues; 10xHis (histidine tag) (C, cleaved yes); made in house
T2 sequence (P29597 886-1187): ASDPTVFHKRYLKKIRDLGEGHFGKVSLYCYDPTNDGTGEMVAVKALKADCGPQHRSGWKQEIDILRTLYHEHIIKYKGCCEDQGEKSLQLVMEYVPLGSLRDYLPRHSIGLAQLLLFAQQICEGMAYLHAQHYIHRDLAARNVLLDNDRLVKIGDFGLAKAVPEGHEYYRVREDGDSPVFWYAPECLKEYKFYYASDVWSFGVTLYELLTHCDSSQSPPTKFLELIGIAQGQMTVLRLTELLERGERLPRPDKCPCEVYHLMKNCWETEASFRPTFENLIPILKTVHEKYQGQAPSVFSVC
The experiment in a line: Tyk2 Inhibition Assay (Omnia kinase fluorescence peptide substrate assay). The conditions noted are these: averaged IC50 ranges; assay of Example A; 10 μM (Km app) or 1 mM ATP, 2 nM Tyk2.
Source text: as §1, §2, §3, §4, §5, §6
Compounds of Formula I were screened for their ability to inhibit Tyk2 using the general enzyme inhibition assay method, in which the assay mixture contained 10 μM (Km app) or 1 mM ATP, 8 μM Omnia® Y12 peptide (Catalog #IVGN KPZ3121C; Invitrogen Corporation, Carlsbad, Calif.) and 2 nM Tyk2 in a total volume of 20 μL. Human Tyk2 kinase domain, comprising amino acids 886 to 1187 with 10 additional histidine residues (histidine tag) on the carboxy terminus, was expressed and purified from bacculovirus in-house at Array BioPharma Inc. (Boulder, Colo.). The histidine tag was cleaved after purification using standard conditions.

A further assay deals with T3, JAK2 (Homo sapiens, UniProt O60674).
T3 construct: purchased Invitrogen Corporation, Carlsbad, Calif; PV4288
The experiment in a line: JAK2 Inhibition Assay (Omnia kinase fluorescence peptide substrate assay). The conditions noted are these: averaged IC50 ranges; assay of Example C; 25 μM (Km app) or 1 mM ATP, 5 nM JAK2.
Source text: as §1, §2, §3, §4, §5, §6
Compounds of Formula I were screened for their ability to inhibit JAK2 using the general enzyme inhibition assay method, in which the assay mixture contained 25 μM (Km app) or 1 mM ATP, 10 μM Omnia® Y7 peptide (Catalog #IVGN KNZ3071C, Invitrogen Corporation, Carlsbad, Calif.) and 5 nM JAK2 in a total volume of 20 μL. JAK2 was purchased from Invitrogen Corporation, Carlsbad, Calif. (catalog #IVGN PV4288).

The next assay deals with T4, JAK1 (Homo sapiens, UniProt P23458).
T4 construct: purchased Invitrogen Corporation, Carlsbad, Calif; PV4775
The experiment in a line: JAK1 Inhibition Assay (Omnia kinase fluorescence peptide substrate assay). The conditions noted are these: averaged IC50 ranges; assay of Example B; 40 μM (Km app) or 1 mM ATP, 15 nM JAK1.
Source text: as §1, §2, §3, §4, §5, §6
Compounds of Formula I were screened for their ability to inhibit JAK1 using the general enzyme inhibition assay method, in which the assay mixture contained 40 μM (Km app) or 1 mM ATP, 8 μM Omnia® Y12 peptide (Catalog #IVGN KPZ3121C; Invitrogen Corporation, Carlsbad, Calif.) and 15 nM JAK1 in a total volume of 20 μL. JAK1 was purchased from Invitrogen Corporation, Carlsbad, Calif. (catalog #IVGN PV4775).

T3 sequence (O60674 whole entry): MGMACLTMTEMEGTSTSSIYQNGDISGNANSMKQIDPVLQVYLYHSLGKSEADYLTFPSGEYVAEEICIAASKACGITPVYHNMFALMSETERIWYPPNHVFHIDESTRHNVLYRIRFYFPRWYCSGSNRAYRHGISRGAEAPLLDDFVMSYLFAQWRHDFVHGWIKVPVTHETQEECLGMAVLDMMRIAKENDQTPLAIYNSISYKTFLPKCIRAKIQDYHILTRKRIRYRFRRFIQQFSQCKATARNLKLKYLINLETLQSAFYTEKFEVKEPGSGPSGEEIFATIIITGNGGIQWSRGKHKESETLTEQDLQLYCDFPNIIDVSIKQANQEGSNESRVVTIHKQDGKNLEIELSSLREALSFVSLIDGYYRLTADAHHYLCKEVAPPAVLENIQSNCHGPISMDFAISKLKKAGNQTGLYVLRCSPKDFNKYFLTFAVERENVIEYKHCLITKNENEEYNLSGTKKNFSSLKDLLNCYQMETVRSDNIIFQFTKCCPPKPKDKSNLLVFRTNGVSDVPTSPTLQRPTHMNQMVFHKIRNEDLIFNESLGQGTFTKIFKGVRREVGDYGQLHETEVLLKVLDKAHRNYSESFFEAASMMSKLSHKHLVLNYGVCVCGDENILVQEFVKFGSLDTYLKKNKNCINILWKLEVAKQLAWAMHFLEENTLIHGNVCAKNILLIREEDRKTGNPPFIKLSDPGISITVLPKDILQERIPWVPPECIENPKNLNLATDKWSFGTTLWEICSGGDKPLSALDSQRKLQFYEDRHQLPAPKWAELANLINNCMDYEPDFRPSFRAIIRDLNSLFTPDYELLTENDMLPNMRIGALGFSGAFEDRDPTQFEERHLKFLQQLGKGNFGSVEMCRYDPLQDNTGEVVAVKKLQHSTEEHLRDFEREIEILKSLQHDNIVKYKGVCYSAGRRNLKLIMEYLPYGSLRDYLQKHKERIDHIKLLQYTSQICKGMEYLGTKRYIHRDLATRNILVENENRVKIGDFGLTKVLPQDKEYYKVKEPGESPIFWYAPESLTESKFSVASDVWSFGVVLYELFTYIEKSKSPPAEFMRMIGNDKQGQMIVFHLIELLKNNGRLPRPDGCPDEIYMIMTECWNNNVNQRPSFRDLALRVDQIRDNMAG
T4 sequence (P23458 whole entry): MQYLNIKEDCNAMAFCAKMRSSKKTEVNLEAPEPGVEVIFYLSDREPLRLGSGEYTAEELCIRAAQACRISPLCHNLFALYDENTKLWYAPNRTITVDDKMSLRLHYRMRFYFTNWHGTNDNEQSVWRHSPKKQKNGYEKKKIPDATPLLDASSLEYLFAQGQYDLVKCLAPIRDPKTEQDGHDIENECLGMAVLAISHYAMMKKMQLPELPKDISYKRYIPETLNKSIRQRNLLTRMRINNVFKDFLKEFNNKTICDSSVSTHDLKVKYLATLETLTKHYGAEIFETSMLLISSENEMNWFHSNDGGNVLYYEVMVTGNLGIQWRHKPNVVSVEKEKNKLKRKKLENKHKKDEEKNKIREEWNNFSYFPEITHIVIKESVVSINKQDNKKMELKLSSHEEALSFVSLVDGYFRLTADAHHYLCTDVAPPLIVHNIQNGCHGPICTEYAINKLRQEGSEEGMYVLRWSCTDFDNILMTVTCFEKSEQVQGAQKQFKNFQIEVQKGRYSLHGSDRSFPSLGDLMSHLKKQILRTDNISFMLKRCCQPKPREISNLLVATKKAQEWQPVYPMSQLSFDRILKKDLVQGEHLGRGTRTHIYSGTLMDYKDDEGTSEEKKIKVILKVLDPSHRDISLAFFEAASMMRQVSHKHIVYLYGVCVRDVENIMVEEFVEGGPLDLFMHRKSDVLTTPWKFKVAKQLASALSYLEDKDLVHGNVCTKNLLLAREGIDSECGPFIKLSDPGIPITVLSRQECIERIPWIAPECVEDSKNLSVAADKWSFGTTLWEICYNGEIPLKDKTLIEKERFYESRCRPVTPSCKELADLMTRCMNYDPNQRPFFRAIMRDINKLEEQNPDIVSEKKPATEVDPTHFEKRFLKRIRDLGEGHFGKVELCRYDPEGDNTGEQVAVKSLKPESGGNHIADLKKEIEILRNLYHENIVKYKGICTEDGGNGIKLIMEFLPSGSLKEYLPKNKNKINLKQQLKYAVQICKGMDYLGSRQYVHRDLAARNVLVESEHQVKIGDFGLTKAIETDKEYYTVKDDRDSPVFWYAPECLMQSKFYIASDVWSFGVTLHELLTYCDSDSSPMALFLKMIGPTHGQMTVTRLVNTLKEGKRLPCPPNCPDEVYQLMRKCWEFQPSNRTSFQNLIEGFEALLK

In general, IC50 refers to the concentration that gives 50% inhibition. A low value points to higher potency. For `Cn1cc(-c2cc3nccn3c(-c3cnn(C(CC#N)c4ccccn4)c3)n2)cn1` (centres unmarked) [Example 6, 3-(4-(7-(1-methyl-1H-pyrazol-4-yl)imidazo[1,2-c]pyrimidin-5-yl)-1H-pyrazol-1-yl)-3-(pyridin-2-yl)propanenitrile], the IC50 was > 1 µM against JAK3, 0.01 to 0.1 µM against Human Tyk2 kinase domain, 0.01 to 0.1 µM on JAK2 and 0.1 to 1 µM on JAK1.
As to `Cn1cc(-c2cc3nccn3c(-c3cnn(C(CC#N)c4cccnc4)c3)n2)cn1` (centres unmarked) [Example 7, 3-(4-(7-(1-methyl-1H-pyrazol-4-yl)imidazo[1,2-c]pyrimidin-5-yl)-1H-pyrazol-1-yl)-3-(pyridin-3-yl)propanenitrile], the IC50 was 0.1 to 1 µM against JAK3, < 0.01 µM against Human Tyk2 kinase domain, 0.01 to 0.1 µM against JAK2 and 0.01 to 0.1 µM against JAK1.
`Cn1cc(-c2cc3nccn3c(-c3cnn(C(CC#N)c4ccncc4)c3)n2)cn1` (centres unmarked) [Example 8, 3-(4-(7-(1-methyl-1H-pyrazol-4-yl)imidazo[1,2-c]pyrimidin-5-yl)-1H-pyrazol-1-yl)-3-(pyridin-4-yl)propanenitrile]: the IC50 is > 1 µM on JAK3, 0.01 to 0.1 µM at Human Tyk2 kinase domain, 0.01 to 0.1 µM on JAK2 and 0.1 to 1 µM against JAK1.
Take `COc1cncc(C(CC#N)n2cc(-c3nc(-c4cnn(C)c4)cc4nccn34)cn2)c1` (centres unmarked) [Example 9, 3-(5-methoxypyridin-3-yl)-3-(4-(7-(1-methyl-1H-pyrazol-4-yl)imidazo[1,2-c]pyrimidin-5-yl)-1H-pyrazol-1-yl)propanenitrile]: the IC50 at JAK3 is > 1 µM; against Human Tyk2 kinase domain, 0.01 to 0.1 µM; at JAK2, 0.01 to 0.1 µM; against JAK1, 0.1 to 1 µM.
With `Cn1cc(-c2cc3nccn3c(-c3cnn(C(CC#N)c4cncc(Br)c4)c3)n2)cn1` (centres unmarked) [Example 10, 3-(5-bromopyridin-3-yl)-3-(4-(7-(1-methyl-1H-pyrazol-4-yl)imidazo[1,2-c]pyrimidin-5-yl)-1H-pyrazol-1-yl)propanenitrile], the concentration for half-maximal inhibition (IC50) is 0.1 to 1 µM on JAK3, < 0.01 µM on Human Tyk2 kinase domain, 0.01 to 0.1 µM against JAK2 and 0.01 to 0.1 µM against JAK1.
Consider `Cn1cc(-c2cc3nccn3c(-c3cnn(C(CC#N)c4ccccc4)c3)n2)cn1` (centres unmarked) [Example 11, 3-(4-(7-(1-methyl-1H-pyrazol-4-yl)imidazo[1,2-c]pyrimidin-5-yl)-1H-pyrazol-1-yl)-3-phenylpropanenitrile], for which the IC50 on JAK3 is 0.1 to 1 µM; on Human Tyk2 kinase domain, < 0.01 µM; against JAK2 it was 0.01 to 0.1 µM; against JAK1 it was 0.01 to 0.1 µM.
As for `Cn1cc(-c2cc3nccn3c(-c3cnn(C(CC#N)c4ccccc4Cl)c3)n2)cn1` (centres unmarked) [Example 12, 3-(2-chlorophenyl)-3-(4-(7-(1-methyl-1H-pyrazol-4-yl)imidazo[1,2-c]pyrimidin-5-yl)-1H-pyrazol-1-yl)propanenitrile], the IC50 at JAK3 was in the range of 0.1 to 1 µM; against Human Tyk2 kinase domain it was 0.01 to 0.1 µM; against JAK2, 0.01 to 0.1 µM; against JAK1, 0.01 to 0.1 µM.
Regarding `Cn1cc(-c2cc3nccn3c(-c3cnn(C(CC#N)c4cccc(Cl)c4)c3)n2)cn1` (centres unmarked) [Example 13, 3-(3-chlorophenyl)-3-(4-(7-(1-methyl-1H-pyrazol-4-yl)imidazo[1,2-c]pyrimidin-5-yl)-1H-pyrazol-1-yl)propanenitrile], the IC50 against JAK3 is 0.1 to 1 µM; at Human Tyk2 kinase domain, < 0.01 µM; on JAK2 it was < 0.01 µM; on JAK1 it was 0.01 to 0.1 µM.
Consider `Cn1cc(-c2cc3nccn3c(-c3cnn(C(CC#N)c4ccc(Cl)cc4)c3)n2)cn1` (centres unmarked) [Example 14, 3-(4-chlorophenyl)-3-(4-(7-(1-methyl-1H-pyrazol-4-yl)imidazo[1,2-c]pyrimidin-5-yl)-1H-pyrazol-1-yl)propanenitrile], for which the IC50 against JAK3 fell in the range of 0.1 to 1 µM; against Human Tyk2 kinase domain, 0.01 to 0.1 µM; on JAK2, 0.01 to 0.1 µM; against JAK1, 0.01 to 0.1 µM.
On to `Cn1cc(-c2cc3nccn3c(-c3cnn(C(CC#N)c4cccc(C(F)(F)F)c4)c3)n2)cn1` (centres unmarked) [Example 15, 3-(4-(7-(1-methyl-1H-pyrazol-4-yl)imidazo[1,2-c]pyrimidin-5-yl)-1H-pyrazol-1-yl)-3-(3-(trifiuoromethyl)phenyl)propanenitrile], for which the IC50 against JAK3 is 0.1 to 1 µM; on Human Tyk2 kinase domain, < 0.01 µM; against JAK2, 0.01 to 0.1 µM; against JAK1, 0.01 to 0.1 µM.
In the case of `Cn1cc(-c2cc3nccn3c(-c3cnn(C(C)(CC#N)c4ccccc4)c3)n2)cn1` (centres unmarked) [Example 16, 3-(4-(7-(1-methyl-1H-pyrazol-4-yl)imidazo[1,2-c]pyrimidin-5-yl)-1H-pyrazol-1-yl)-3-phenylbutanenitrile], the IC50 against JAK3 is > 1 µM; against Human Tyk2 kinase domain, 0.1 to 1 µM; at JAK2, 0.1 to 1 µM; on JAK1, > 1 µM.
